Assay results: patent US12622899B2 (PureTech LYT 100, Inc., priority 2018, dated 2026)

Key:
[1] = clinical; conditions: both sexes, human, in vivo, 550 mg
Protocol: Over-encapsulation was utilized to maintain study blind. […] Approximately 50 older healthy female and male adult subjects (1:1 ratio) were randomized into 1 of 2 cohorts:Cohort 1 or Cohort 2, N=˜25 subjects per cohort.
There was a single AM fasting dose on Day 4 for both drugs. There was a 6-day wash-out period between drug cross-over.
Subjects were discharged on Day 4 following successful completion of all assessments and at the Investigator's discretion.
Subjects were then administered a single dose of their randomized treatment on the morning of Day 14 following an overnight fast of at least 8 hours. Subjects were discharged on Day 14 following successful completion of all assessments and at the Investigator's discretion.
An evening snack was served ≥3 hours following evening study medication administration. On Day 4 (Treatment Period 1) and Day 14 (Treatment Period 2), subjects were administered their assigned study drug once in the morning following an overnight fast of at least 8 hours (with approximately 240 mL of non-carbonated water). No additional fluids were allowed during the 1 hour pre- and post-dose.
Blood samples for PK were collected for Cohorts 1 and 2 at specified times during both periods, as follows: • Days 1 & 11:0 (pre-morning dose) • Days 2 & 12: no sampling. • Days 3 & 13:0 (pre-morning dose), and 1, 2, 3, 4, 6 (pre-mid-day dose), 7, 8, 9, 10, 12 (pre-evening dose), 13, 14, 15, 16, and 17 hours post-morning dose • Days 4 & 14:0 (pre-morning dose), and 1, 2, 3, 4, 6 (post-dose),

[2] = Study LYT-100-2021-103 Part 3 (Example 2): PK of LYT-100 550 mg TID then 824 mg TID; assay type: in vivo, human
Protocol: Subjects provided blood samples prior to treatment, i.e., Day −1 or Day 1, for the determination of CYP1A2, CYP2C9, CYP2C19, and CYP2D6 genotype to support exploratory PK analyses. Subjects were required to provide consent for genotyping. Blood samples for PK were collected at specified times, as follows: • Day 1:0 (pre-AM dose) • Day 2: no sampling • Day 3:0 (pre-AM dose), and 1, 2, 3, 4, 6 (pre-mid-day dose), 7, 8, 9, 10, 12 (pre-PM dose), 13, 14, 15, 16, and 17 hours post-AM dose • Day 4:0 (pre-AM dose) • Day 5: no sampling • Day 6:0 (pre-AM dose), and 1, 2, 3, 4, 6 (pre-mid-day dose), 7, 8, 9, 10, 12 (pre-PM dose), 13, 14, 15, 16, and 17 hours post-AM dose • Day 7:0 (same time as Day 6 pre-AM dose, discharge)
Data was obtained for thirty subjects. Eight subjects had all values reported as below level of quantitation (BLQ; assumed to be 6 placebo subjects plus 2 active subjects with Day 1 pre-dose samples only). One additional subject was excluded due to a large number of BLQ samples on both Days 3-4 and 6-7. Accordingly, twenty-one subjects had sufficient PK data available to calculate PK parameters at the lower dose (550 mg TID on Days 3-4). Three subjects only had data for Days 3-4, and therefore had missing PK parameters for the higher dose (824 mg TID on Days 6-7).

[3] = test system: patients with Idiopathic Pulmonary Fibrosis (IPF); assay: IPF trial Part A: clinical laboratory parameters, liver; assay type: in vivo, human
[4] = test system: healthy older adults; assay: Study LYT-100-2021-103 Part 3 (Example 2): safety and tolerability vs placebo; conditions: for Abdominal Pain/Discomfort/Distension, adverse events / Diarrhea, adverse events / Dizziness, adverse events / Dyspepsia, adverse events / GI Disorders, adverse events / Headache, adverse events / Nausea, adverse events / Nervous System Disorders, adverse events / Vomiting, adverse events: fed, N=13
Protocol: Only subjects who met all the applicable inclusion and none of the applicable exclusion criteria were randomized.
Safety and tolerability were assessed by monitoring AEs, physical examination, vital signs, 12-lead ECGs, clinical laboratory values (hematology panel, multiphasic chemistry panel and urinalysis), and review of concomitant treatments/medication use.

[5] = Part 3 safety population, LYT-100 550 mg TID Days 1-3 then 824 mg TID Days 4-6, N=24

SMILES: [2H]C([2H])([2H])c1ccc(=O)n(-c2ccccc2)c1 [LYT-100, 5-(methyl-d3)-1-phenylpyridin-2-(1H)-one]
- AUC(0-t) ([1]; AUC0-24, parent): 34100 ng·h/mL
- Cmax ([1]; Cmax, parent): 9170 ng/mL
- Cmax, PK Parent ([2]; Healthy Older Part 3, LYT-100 824 mg TID, fed, N=13, mean (SD)): 13.7 (5.1) mcg/mL
- AUC, % higher compared to historic pirfenidone PK values ([2]; LYT-100 824 mg TID): approximately 25%
- exposure equivalent, % of 801 TID pirfenidone ([2]; LYT-100 825 mg TID): 120-150%
- Cmax, % higher than with pirfenidone ([2]; Part 3, LYT-100 824 mg TID): 17%
- liver enzyme elevations, drug-induced liver injury ([3]; IPF Part A): no instances of drug-induced liver injury or Hy's Law
- Alanine Aminotransferase (U/L) at Worst Post-Baseline, 3-5 ULN ([3]; TID Pooled (N = 129), N1 120): 2 (1.7) n (%)
- Alanine Aminotransferase (U/L) at Worst Post-Baseline, 5-8 ULN ([3]; TID Pooled (N = 129), N1 120): 1 n (%)
- Alanine Aminotransferase (U/L) at Worst Post-Baseline, >8 ULN ([3]; TID Pooled (N = 129), N1 120): 2 n (%)
- Alanine Aminotransferase (U/L) at Worst Post-Baseline, Total (>3 ULN) ([3]; TID Pooled (N = 129), N1 120): 5 (4.2) n (%)
- Alanine Aminotransferase or Aspartate Aminotransferase (U/L) at Worst Post-Baseline, 3-5 ULN ([3]; TID Pooled (N = 129), N1 120): 2 (1.7) n (%)
- Alanine Aminotransferase or Aspartate Aminotransferase (U/L) at Worst Post-Baseline, 5-8 ULN ([3]; TID Pooled (N = 129), N1 120): 1 n (%)
- Alanine Aminotransferase or Aspartate Aminotransferase (U/L) at Worst Post-Baseline, >8 ULN ([3]; TID Pooled (N = 129), N1 120): 2 n (%)
- Alanine Aminotransferase or Aspartate Aminotransferase (U/L) at Worst Post-Baseline, Total (>3 ULN) ([3]; TID Pooled (N = 129), N1 120): 5 (4.2) n (%)
- Aspartate Aminotransferase (U/L) at Worst Post-Baseline, 3-5 ULN ([3]; TID Pooled (N = 129), N1 120): 2 (1.7) n (%)
- Aspartate Aminotransferase (U/L) at Worst Post-Baseline, 5-8 ULN ([3]; TID Pooled (N = 129), N1 120): 0 n (%)
- Aspartate Aminotransferase (U/L) at Worst Post-Baseline, >8 ULN ([3]; TID Pooled (N = 129), N1 120): 2 n (%)
- Aspartate Aminotransferase (U/L) at Worst Post-Baseline, Total (>3 ULN) ([3]; TID Pooled (N = 129), N1 120): 4 (3.3) n (%)
- deaths or SAEs ([4]; Part 3): No deaths or SAEs
- Abdominal Pain/Discomfort/Distension, adverse events ([4]; Part 3, LYT-100 550 mg TID): 0 n (%)
- Diarrhea, adverse events ([4]; Part 3, LYT-100 550 mg TID): 1 (4.2) n (%)
- Dizziness, adverse events ([4]; Part 3, LYT-100 550 mg TID): 1 (4.2) n (%)
- Dyspepsia, adverse events ([4]; Part 3, LYT-100 550 mg TID): 1 (4.2) n (%)
- GI Disorders, adverse events ([4]; Part 3, LYT-100 550 mg TID): 2 (8.3) n (%)
- Headache, adverse events ([4]; Part 3, LYT-100 550 mg TID): 3 (12.5) n (%)
- Nausea, adverse events ([4]; Part 3, LYT-100 550 mg TID): 0 n (%)
- Nervous System Disorders, adverse events ([4]; Part 3, LYT-100 550 mg TID): 3 (12.5) n (%)
- Vomiting, adverse events ([4]; Part 3, LYT-100 550 mg TID): 0 n (%)
- tolerability ([4]; Part 3, LYT-100 824 mg TID, 3 treatment days): well tolerated
- Abdominal Pain/Discomfort/Distension, adverse events ([4]; Part 3, LYT-100 824 mg TID): 0 n (%)
- Diarrhea, adverse events ([4]; Part 3, LYT-100 824 mg TID): 0 n (%)
- Dizziness, adverse events ([4]; Part 3, LYT-100 824 mg TID): 0 n (%)
- Dyspepsia, adverse events ([4]; Part 3, LYT-100 824 mg TID): 0 n (%)
- GI Disorders, adverse events ([4]; Part 3, LYT-100 824 mg TID): 0 n (%)
- Headache, adverse events ([4]; Part 3, LYT-100 824 mg TID): 0 n (%)
- Nausea, adverse events ([4]; Part 3, LYT-100 824 mg TID): 0 n (%)
- Nervous System Disorders, adverse events ([4]; Part 3, LYT-100 824 mg TID): 0 n (%)
- Vomiting, adverse events ([4]; Part 3, LYT-100 824 mg TID): 0 n (%)
- subjects discontinued due to a TEAE (all Covid-19) ([4]; Part 3, LYT-100 group N=24): 3 (12.5%) n (%)
- subjects with at least one TEAE ([4]; Part 3, LYT-100 group N=24): 8 (33.3%) n (%)
- subjects with mild TEAEs ([4]; Part 3, LYT-100 group N=24): 7 (29.2%) n (%)
- COVID-19 TEAE [4, 5]: 4 (16.7) n (%)
- Headache TEAE [4, 5]: 3 (12.5) n (%)
